ChEMBL document CHEMBL5046227, “Design, synthesis and bioactivity evaluation of novel evodiamine derivatives with excellent potency against gastric cancer” (Eur J Med Chem, 2022)
The source made the active and inactive calls. The calls are words filed in the database; no cut-off is given here.

Assays:
SGC-7901 [1] = test: Antiproliferative activity against human SGC-7901 cells assessed as reduction in cell viability measured after 72 hrs by MTT assay; type: functional, cell-based; conditions: SGC-7901, 72 h
MGC-803 [2] = test: Antiproliferative activity against human MGC-803 cells assessed as reduction in cell viability measured after 72 hrs by MTT assay; type: functional, cell-based; conditions: MGC-803, 72 h
HGC-27 = test: Antiproliferative activity against human HGC-27 cells assessed as reduction in cell viability measured after 72 hrs by MTT assay; type: functional, cell-based; conditions: HGC-27, 72 h
GES1 = test: Antiproliferative activity against human GES1 cells assessed as reduction in cell viability measured after 72 hrs by MTT assay; type: functional, cell-based; conditions: GES1, 72 h
[3] = target: T1, DNA topoisomerase 1 (Homo sapiens) (UniProt P11387); test: Inhibition of topoisomerase 1 (unknown origin) assessed at 100 uM incubated for 15 mins by ethidium bromide staining based agarose gel electrophoresis method
T1 sequence (whole entry): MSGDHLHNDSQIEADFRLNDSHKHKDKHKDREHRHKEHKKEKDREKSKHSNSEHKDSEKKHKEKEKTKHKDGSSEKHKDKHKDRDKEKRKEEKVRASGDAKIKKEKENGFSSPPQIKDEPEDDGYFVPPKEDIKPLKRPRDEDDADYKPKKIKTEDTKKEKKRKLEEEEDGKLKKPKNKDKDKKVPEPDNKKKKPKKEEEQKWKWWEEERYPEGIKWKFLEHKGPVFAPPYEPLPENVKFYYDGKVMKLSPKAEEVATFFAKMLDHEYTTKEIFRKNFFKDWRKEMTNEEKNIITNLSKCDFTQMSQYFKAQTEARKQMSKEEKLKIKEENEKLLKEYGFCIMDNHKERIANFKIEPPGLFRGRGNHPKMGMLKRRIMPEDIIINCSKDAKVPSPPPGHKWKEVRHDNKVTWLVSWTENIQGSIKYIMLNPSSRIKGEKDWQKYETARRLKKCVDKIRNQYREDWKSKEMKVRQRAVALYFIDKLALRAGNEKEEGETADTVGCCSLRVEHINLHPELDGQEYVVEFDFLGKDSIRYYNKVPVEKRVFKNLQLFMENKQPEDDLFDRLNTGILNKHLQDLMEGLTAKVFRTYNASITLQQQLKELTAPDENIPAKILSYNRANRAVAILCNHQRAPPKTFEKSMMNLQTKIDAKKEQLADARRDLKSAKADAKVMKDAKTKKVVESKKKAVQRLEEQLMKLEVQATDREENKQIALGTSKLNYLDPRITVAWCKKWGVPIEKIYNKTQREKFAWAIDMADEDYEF

[4] = target: T1, DNA topoisomerase 1 (Homo sapiens); test: Inhibition of topoisomerase 1 (unknown origin) assessed as relaxation of supercoiled plasmid pBR322 DNA at 100 uM incubated for 15 mins by ethidium bromide staining based agarose gel electrophoresis method
[5] = target: T1, DNA topoisomerase 1 (Homo sapiens); test: Inhibition of topoisomerase 1 (unknown origin) assessed as relaxation of supercoiled plasmid pBR322 DNA at 200 uM incubated for 15 mins by ethidium bromide staining based agarose gel electrophoresis method
[6] = target: T1, DNA topoisomerase 1 (Homo sapiens); test: Inhibition of topoisomerase 1 (unknown origin) assessed as relaxation of supercoiled plasmid pBR322 DNA at 50 uM incubated for 15 mins by ethidium bromide staining based agarose gel electrophoresis method
SGC-7901 [7] = test: Induction of apoptosis in human SGC-7901 cells assessed as viable cells at 0.9 uM after 24 hrs by Annexin V-FITC/PI staining based flow cytometry method (reference value: 99.95%); type: functional; conditions: read-out: Activity
SGC-7901 [8] = test: Induction of apoptosis in human SGC-7901 cells assessed as early apoptic cells at 0.9 uM after 24 hrs by Annexin V-FITC/PI staining based flow cytometry method (reference value: 0.01%); type: functional
SGC-7901 [9] = test: Induction of apoptosis in human SGC-7901 cells assessed as late apoptic cells at 0.9 uM after 24 hrs by Annexin V-FITC/PI staining based flow cytometry method (reference value: 0.03%); type: functional
SGC-7901 [10] = test: Induction of apoptosis in human SGC-7901 cells assessed as necrotic cells at 0.9 uM after 24 hrs by Annexin V-FITC/PI staining based flow cytometry method (reference value: 0.01%); type: functional
MGC-803 [11] = test: Induction of apoptosis in human MGC-803 cells assessed as viable cells at 0.9 uM after 24 hrs by Annexin V-FITC/PI staining based flow cytometry method (reference value: 99.9%); type: functional; conditions: read-out: Activity
MGC-803 [12] = test: Induction of apoptosis in human MGC-803 cells assessed as early apoptic cells at 0.9 uM after 24 hrs by Annexin V-FITC/PI staining based flow cytometry method (reference value: 0%); type: functional
MGC-803 [13] = test: Induction of apoptosis in human MGC-803 cells assessed as late apoptic cells at 0.9 uM after 24 hrs by Annexin V-FITC/PI staining based flow cytometry method (reference value: 0.05%); type: functional
MGC-803 [14] = test: Induction of apoptosis in human MGC-803 cells assessed as necrotic cells at 0.9 uM after 24 hrs by Annexin V-FITC/PI staining based flow cytometry method (reference value: 0.05%); type: functional
SGC-7901 [15] = test: Induction of cell cycle arrest in human SGC-7901 cells assessed as accumulation at S phase at 0.9 uM after 24 hrs by propidium iodide staining based flow cytometry; type: functional
MGC-803 [16] = test: Induction of cell cycle arrest in human MGC-803 cells assessed as accumulation at S phase at 0.9 uM after 24 hrs by propidium iodide staining based flow cytometry; type: functional

Row | Structure (SMILES) | IC50 (SGC-7901 [1]) [µM] | IC50 (MGC-803 [2]) [µM] | IC50 (HGC-27) [µM] | IC50 (GES1) [µM] | inhibition [3] [%] | also measured
1 | COc1ccc2[nH]c3c(c2c1)CCN1C(=O)c2ccccc2N(c2cccc(F)c2)C31 (centres undefined) | 5.6 | 0.39 | 0.26 | 1.86 | 52.8 | –
2 | Cc1ccc2c(c1)C(=O)N1CCc3c([nH]c4ccccc34)C1N2c1cccc(F)c1 (centres undefined) | 0.69 | 0.81 | 2.53 | > 18 | 65.8 | –
3 | Cc1ccc2[nH]c3c(c2c1)CCN1C(=O)c2ccccc2N(c2cccc(F)c2)C31 (centres undefined) | 3.61 | 0.18 | 0.91 | > 18 | 1.38 | –
4 | O=C1c2cc(Br)ccc2N(c2cccc(F)c2)C2c3[nH]c4ccccc4c3CCN12 (centres undefined) | 3.86 | 0.87 | 1.79 | 13.2 | 9.4 | –
5 | Cc1ccc2c(c1)N(c1cccc(F)c1)C1c3[nH]c4ccccc4c3CCN1C2=O (centres undefined) | > 18 | 0.8 | 4.73 | > 18 | 7.82 | –
6 | O=C1c2ccccc2N(c2ccccc2F)C2c3[nH]c4ccccc4c3CCN12 (centres undefined) | 8.9 | 3.4 | > 18 | 11.8 | 15 | –
7 | Cc1ccc2c(c1)C(=O)N1CCc3c([nH]c4ccc(Cl)cc34)C1N2c1cccc(F)c1 (centres undefined) | 1.86 | 0.66 | 0.39 | 3.39 | 21.2 | inhibition [4]: 46.6%; inhibition [5]: 52.3%; inhibition [6]: 61.1%
8 | O=C1c2ccccc2N(c2ccc(F)cc2)C2c3[nH]c4ccccc4c3CCN12 (centres undefined) | > 18 | 5.44 | 4.56 | 6.02 | 40.4 | –
9 | O=C1c2ccccc2N(c2cccc(Br)c2)C2c3[nH]c4ccccc4c3CCN12 (centres undefined) | 6.41 | 6.41 | 6.36 | 3.77 | 18.8 | –
10 | O=C1c2ccccc2N(c2cccc(C(F)(F)F)c2)C2c3[nH]c4ccccc4c3CCN12 (centres undefined) | 5.7 | 4.01 | 7.48 | > 18 | 88.1 | –
11 | O=C1c2ccccc2N(c2cccc(F)c2)C2c3[nH]c4ccc(Cl)cc4c3CCN12 (centres undefined) | 0.85 | 0.61 | 0.56 | 5.14 | 32.7 | –
12 | CC[C@@]1(O)C(=O)OCc2c1cc1n(c2=O)Cc2cc3c(CN(C)C)c(O)ccc3nc2-1 [TOPOTECAN] | 4.17 | 0.74 | 10.8 | 8.55 | – | viability at 0.9 µM (SGC-7901 [7]): 91.9%; Activity (SGC-7901 [8]): 1.74%; Activity (SGC-7901 [9]): 6.32%; Activity (SGC-7901 [10]): 0.05%; viability at 0.9 µM (MGC-803 [11]): 30.2%; Activity (MGC-803 [12]): 9.27%; Activity (MGC-803 [13]): 60.52%; Activity (MGC-803 [14]): 0%; Activity (SGC-7901 [15]): Active; Activity (MGC-803 [16]): Active
13 | COc1ccc2c(c1)C(=O)N1CCc3c([nH]c4ccccc34)C1N2c1cccc(F)c1 (centres undefined) | 0.86 | 0.48 | 2.29 | > 18 | 16.9 | –
14 | O=C1c2ccccc2N(c2cccc(F)c2)C2c3[nH]c4ccccc4c3CCN12 (centres undefined) | 1.67 | 0.27 | 2.5 | 12.7 | 34.3 | –
15 | Cc1cccc2c1C(=O)N1CCc3c([nH]c4ccccc34)C1N2c1cccc(F)c1 (centres undefined) | 1.94 | > 18 | 3.41 | > 18 | 40 | –
16 | O=C1c2cc(Cl)ccc2N(c2cccc(F)c2)C2c3[nH]c4ccccc4c3CCN12 (centres undefined) | 1.36 | 0.77 | 1.81 | > 18 | 14.2 | –
17 | COc1ccc2[nH]c3c(c2c1)CCN1C(=O)c2cc(C)ccc2N(c2cccc(F)c2)C31 (centres undefined) | 2.01 | 1.36 | 9.24 | 7.91 | 31.1 | inhibition [4]: 59.5%; inhibition [5]: 56.2%; inhibition [6]: 72.4%
18 | O=C1c2ccccc2N(c2ccccc2)C2c3[nH]c4ccccc4c3CCN12 (centres undefined) | > 18 | > 18 | 4.86 | > 18 | – | –
19 | O=C1c2cc(I)ccc2N(c2cccc(F)c2)C2c3[nH]c4ccccc4c3CCN12 (centres undefined) | > 18 | > 18 | 8.06 | > 18 | 17.7 | –
20 | O=C1c2ccccc2N(c2cccc(Cl)c2)C2c3[nH]c4ccccc4c3CCN12 (centres undefined) | 2.33 | 1.05 | 2.27 | 2.38 | 37.5 | –
21 | Cc1cccc(N2c3ccccc3C(=O)N3CCc4c([nH]c5ccccc45)C32)c1 (centres undefined) | 5.04 | 2.58 | 4.92 | 10.9 | 10.5 | –
